Source: ChEMBL document CHEMBL4813964, “2,5-Disubstituted furan derivatives containing 1,3,4-thiadiazole moiety as potent α-glucosidase and E. coli β-glucuronidase inhibitors” (Eur J Med Chem, 2021)

What was measured:
[1] = Inhibition of Escherichia coli […] expressed in Escherichia coli BL21 (DE3) assessed as reduction in PNP formation using beta-PNPG as substrate incubated for 30 mins
[2] = Inhibition of Saccharomyces cerevisiae alpha-glucosidase assessed as reduction in PNP formation using alpha-PNPG as substrate incubated for 30 mins
[3] = tested on: Escherichia coli; experiment: Inhibition of recombinant Escherichia coli […] expressed in Escherichia coli BL21(DE3) assessed as reduction in PNP formation at 10 uM using beta-PNPG as substrate incubated for 30 mins relative to control
[4] = tested on: Saccharomyces cerevisiae; experiment: Inhibition of Saccharomyces cerevisiae alpha-glucosidase assessed as reduction in PNP formation at 10 uM using alpha-PNPG as substrate incubated for 30 mins relative to control
[5] = tested on: L02; experiment: Cytotoxicity against human L02 cells assessed as reduction in cell viability incubated for 48 hrs by CCK8 assay; format: cell-based; settings: L02, 48 h
[6] = tested on: Escherichia coli; experiment: Potency index, ratio of DSL IC50 to test compound IC50 for inhibition of Escherichia coli […] expressed in Escherichia coli BL21 (DE3) assessed as reduction in PNP formation using beta-PNPG as substrate incubated for 30 mins
[7] = Uncompetitive inhibition of recombinant Escherichia coli […] expressed in Escherichia coli […] using beta-PNPG as substrate incubated for 30 mins by Lineweaver-Burk plot analysis
[8] = Competitive inhibition of Saccharomyces cerevisiae alpha-glucosidase using alpha-PNPG as substrate incubated for 30 mins by Lineweaver-Burk plot analysis
[9] = tested on: Saccharomyces cerevisiae; experiment: Potency index, ratio of ACAR IC50 to test compound IC50 for inhibition of Saccharomyces cerevisiae alpha-glucosidase assessed as reduction in PNP formation using alpha-PNPG as substrate incubated for 30 mins
[10] = Mixed inhibition of recombinant Escherichia coli […] expressed in Escherichia coli BL21(DE3) using beta-PNPG as substrate incubated for 30 mins by Lineweaver-Burk plot analysis

IC50 [1] [nM] | IC50 [2] [nM] | inhibition [3] [%] | inhibition [4] [%] | Ratio IC50 [6] | Ki [8] [nM] | Ratio IC50 [9] | Structure (SMILES) | IC50 [5] [nM] | Ki [7] [nM] | Ki [10] [nM]
357 | 1940 | 86.7 | 65.8 | – | – | – | Cc1nnc(SC(=O)c2ccc(-c3ccc(F)cc3F)o2)s1 | – | – | –
425 | 646 | 95.9 | 82.6 | – | – | – | O=C(Sc1nncs1)c1ccc(-c2cccc(F)c2)o1 | – | – | –
341 | 223 | 90.5 | 95.7 | – | – | – | O=C(Sc1nncs1)c1ccc(-c2ccccc2[N+](=O)[O-])o1 | > 100000 | – | –
1140 | 1670 | 87.8 | 82.5 | – | – | – | O=C(Sc1nncs1)c1ccc(-c2ccccc2F)o1 | – | – | –
923 | 823 | 95.9 | 73 | – | – | – | Cc1nnc(SC(=O)c2ccc(-c3ccccc3)o2)s1 | – | – | –
533 | 239 | 93 | 74.4 | – | – | – | COc1ccc(-c2ccc(C(=O)Sc3nncs3)o2)cc1 | – | – | –
230 | 774 | 100 | 94.1 | – | – | – | Cc1nnc(SC(=O)c2ccc(-c3ccccc3Cl)o2)s1 | – | – | –
– | 1810 | – | 75.1 | – | – | – | O=C(Sc1nncs1)c1ccc(-c2ccc([N+](=O)[O-])cc2)o1 | – | – | –
1130 | 613 | 105 | 79.5 | – | – | – | O=C(Sc1nncs1)c1ccc(-c2ccccc2)o1 | – | – | –
247 | 2500 | 92.9 | 62.9 | – | – | – | Cc1nnc(SC(=O)c2ccc(-c3ccc([N+](=O)[O-])cc3)o2)s1 | – | – | –
82 | 2950 | 91.7 | 59.1 | 820 | – | – | Cc1nnc(SC(=O)c2ccc(-c3cccc(F)c3)o2)s1 | 86200 | 60 | –
5370 | 1350 | 88.1 | 82.1 | – | – | – | O=C(Sc1nncs1)c1ccc(-c2ccccc2Cl)o1 | – | – | –
83 | – | 99.8 | – | – | – | – | Clc1ccc2c(c1)C(N1CCNCC1)=Nc1ccccc1O2 [AMOXAPINE] | – | 50 | –
551 | 728 | 99.6 | 82.5 | – | – | – | Cc1nnc(SC(=O)c2ccc(-c3cccc(Cl)c3)o2)s1 | – | – | –
796 | 1850 | 78.8 | 58.7 | – | – | – | Cc1nnc(SC(=O)c2ccc(-c3ccc(F)cc3)o2)s1 | – | – | –
1200 | – | 92.5 | 20.1 | – | – | – | Cc1nnc(SC(=O)c2ccc(-c3cccc([N+](=O)[O-])c3)o2)s1 | – | – | –

IC50 [1] [nM] | IC50 [2] [nM] | inhibition [3] [%] | inhibition [4] [%] | Ratio IC50 [6] | Ki [8] [nM] | Ratio IC50 [9] | Structure (SMILES) | IC50 [5] [nM] | Ki [7] [nM] | Ki [10] [nM]
312 | 286 | 90.1 | 78.2 | – | – | – | Cc1ccc(-c2ccc(C(=O)Sc3nncs3)o2)cc1 | – | – | –
148 | 680 | 83.8 | 77.1 | – | – | – | O=C(Sc1nncs1)c1ccc(-c2cccc(Cl)c2)o1 | – | – | –
415 | 863 | 96.1 | 90.8 | – | – | – | Cc1nnc(SC(=O)c2ccc(-c3c(F)cccc3F)o2)s1 | – | – | –
307 | 2740 | 96.6 | 69.9 | – | – | – | Cc1nnc(SC(=O)c2ccc(-c3ccccc3F)o2)s1 | – | – | –
303 | – | 87.5 | 33.1 | – | – | – | COc1ccc(-c2ccc(C(=O)Sc3nnc(C)s3)o2)cc1 | – | – | –
849 | 903 | 92.9 | 81.6 | – | – | – | O=C(Sc1nncs1)c1ccc(-c2c(F)cccc2F)o1 | – | – | –
2080 | 186 | 92 | 68.9 | – | 50 | 2800 | O=C(Sc1nncs1)c1ccc(-c2ccc(Cl)cc2)o1 | 83300 | – | –
1260 | 1140 | 76.4 | 71 | – | – | – | O=C(Sc1nncs1)c1ccc(-c2ccc(F)cc2F)o1 | – | – | –
755 | 11000 | 82.7 | 50.8 | – | – | – | Cc1nnc(SC(=O)c2ccc(-c3ccc(Br)cc3)o2)s1 | – | – | –
695 | – | 77.8 | 48.8 | – | – | – | Cc1nnc(SC(=O)c2ccc(-c3ccc(Cl)cc3)o2)s1 | – | – | –
212 | 1570 | 74.6 | 79.6 | – | – | – | O=C(Sc1nncs1)c1ccc(-c2cccc([N+](=O)[O-])c2)o1 | – | – | –
564 | 658 | 98.5 | 81.6 | – | – | – | Cc1nnc(SC(=O)c2ccc(-c3ccccc3[N+](=O)[O-])o2)s1 | – | – | –
526 | 652 | 94.4 | 76.5 | – | – | – | O=C(Sc1nncs1)c1ccc(-c2ccc(F)cc2)o1 | – | – | –
508 | – | 85.7 | 44.4 | – | – | – | Cc1ccc(-c2ccc(C(=O)Sc3nnc(C)s3)o2)cc1 | – | – | –
– | 517000 | – | 11.1 | – | 378000 | – | C[C@H]1O[C@H](O[C@H]2[C@H](O)[C@@H](O)[C@@H](O[C@H]3[C@H](O)[C@@H](O)C(O)O[C@@H]3CO)O[C@@H]2CO)[C@H](O)[C@@H](O)[C@@H]1N[C@H]1C=C(CO)[C@@H](O)[C@H](O)[C@H]1O (stereo not given in full) [ACARBOSE] | – | – | –
379 | 526 | 76.4 | 66.7 | – | – | – | O=C(Sc1nncs1)c1ccc(-c2ccc(Br)cc2)o1 | – | – | –

Structure (SMILES) | IC50 [1] [nM] | IC50 [2] [nM] | inhibition [3] [%] | inhibition [4] [%] | Ratio IC50 [6] | Ki [8] [nM] | Ratio IC50 [9] | IC50 [5] [nM] | Ki [7] [nM] | Ki [10] [nM]
O=C(O)[C@@H](O)[C@H]1OC(=O)[C@H](O)[C@H]1O [D-SACCHARIC ACID 1,4-LACTONE] | 67300 | – | 11.6 | – | – | – | – | – | – | 30900
